Among the data in US12492181B2, “Gem-disubstituted piperidine melanocortin subtype-2 receptor (MC2R) antagonists and uses thereof” (Crinetics Pharmaceuticals, Inc., priority 2019, dated 2025) are Ki values, retold here.

T1 sequence (Q01718 whole entry): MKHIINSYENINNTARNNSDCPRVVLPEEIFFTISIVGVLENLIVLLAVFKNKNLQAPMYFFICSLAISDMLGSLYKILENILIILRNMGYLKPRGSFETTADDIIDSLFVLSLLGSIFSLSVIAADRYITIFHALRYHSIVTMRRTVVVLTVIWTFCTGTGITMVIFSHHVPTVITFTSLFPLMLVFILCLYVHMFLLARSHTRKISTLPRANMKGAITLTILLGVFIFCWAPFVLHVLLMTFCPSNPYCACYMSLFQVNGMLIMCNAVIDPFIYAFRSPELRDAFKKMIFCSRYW
T1 sequence (Q8TCY5 whole entry partner): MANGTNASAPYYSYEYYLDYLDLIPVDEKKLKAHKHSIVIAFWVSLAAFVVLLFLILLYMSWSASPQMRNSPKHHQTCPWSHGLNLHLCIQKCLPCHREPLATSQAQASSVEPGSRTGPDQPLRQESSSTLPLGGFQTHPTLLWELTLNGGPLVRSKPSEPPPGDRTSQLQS

This assay has as its target T1, hMC2 receptor (crude hMC2R membranes from CRE-bla-CHO-K1 cells stably expressing hMC2 receptor and hMRAP accessory protein) (Homo sapiens, UniProt Q01718).
T1 construct: crude membrane fractions
Put plainly: hMC2 membrane binding assay ([125I]ACTH (1-39) Tyr23, SPA). To be noted: displacement of 0.2 nM [125I]ACTH (1-39) Tyr23 from hMC2R membranes, 1.5 hours at room temperature; read-out: MC2R binding potency. An outline of the steps: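 Crude membranes from CRE-bla-CHO-K1 cells stably co-expressing hMC2R and hMRAP, premixed with WGA PVT SPA beads in pH 7.4 HEPES buffer (5 mM MgCl2, 1 mM CaCl2, 0.20% BSA, protease inhibitors). Compounds compete with [125I]ACTH(1-39) Tyr23, read by scintillation. Ki from non-linear regression.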
For `COc1ccc(F)cc1-c1ncc(C2(C(=O)N[C@H]3CCN(C)C3)CCN(c3ccc(C(F)(F)F)cc3C#N)CC2)cc1F` [Compound 1-195, 1-[2-cyano-4-(trifluoromethyl)phenyl]-4-[5-fluoro-6-(5-fluoro-2-methoxyphenyl)pyridin-3-yl]-N-[(3S)-1-methylpyrrolidin-3-yl]piperidine-4-carboxamide], the Ki was below 10 nM.

Regarding `CN1CC[C@H](NC(=O)C2(c3ccc(-c4cccn4C)nn3)CCN(c3ccc(C(F)(F)F)cc3Cl)CC2)C1` [Compound 1-169, 1-[2-chloro-4-(trifluoromethyl)phenyl]-4-[6-(1-methyl-1H-pyrrol-2-yl)pyridazin-3-yl]-N-[(3S)-1-methylpyrrolidin-3-yl]piperidine-4-carboxamide], the Ki is below 10 nM.

`COc1ccccc1-c1ccc(C2(C(=O)N[C@H]3CCN(C)C3)CCN(c3ccc(C(F)(F)F)cc3C#N)CC2)nn1` [Compound 1-183, 1-[2-cyano-4-(trifluoromethyl)phenyl]-4-[6-(2-methoxyphenyl)pyridazin-3-yl]-N-[(3S)-1-methylpyrrolidin-3-yl]piperidine-4-carboxamide]: the Ki was below 10 nM.

For the compound `CCOc1ccccc1-c1ccc(C2(NC(=O)[C@H]3CCN(C)C3)CCN(c3ccc(Cl)cc3C#N)CC2)cn1` [Compound 2-28, (3S)—N-[1-(4-chloro-2-cyanophenyl)-4-[6-(2-ethoxyphenyl)pyridin-3-yl]piperidin-4-yl]-1-methylpyrrolidine-3-carboxamide], the Ki was below 10 nM.

In the case of `COc1ccccc1-c1ccc(C2(C(=O)N[C@@H]3CN(C)C[C@H]3F)CCN(c3ccc(C(F)(F)F)cc3C#N)CC2)cn1` [Compound 1-243, 1-[2-cyano-4-(trifluoromethyl)phenyl]-N-[(3R,4R)-4-fluoro-1-methylpyrrolidin-3-yl]-4-[6-(2-methoxyphenyl)pyridin-3-yl]piperidine-4-carboxamide], the Ki was below 10 nM.

Regarding `CCOc1ncccc1-c1ccc(C2(C(=O)NC3CN(C)CC3O)CCN(c3ccc(C(F)(F)F)cc3C#N)CC2)cn1` (single isomer, unassigned) [Compound 1-46, 1-[2-cyano-4-(trifluoromethyl)phenyl]-4-{2′-ethoxy-[2,3′-bipyridin]-5-yl}-N-[(3R,4R)*-4-hydroxy-1-methylpyrrolidin-3-yl]piperidine-4-carboxamide], the Ki was below 10 nM.

In the case of `COc1ccccc1-c1ccc(C2(C(=O)N[C@@H]3CN(C)C[C@@H]3F)CCN(c3ccc(C(F)(F)F)cc3C#N)CC2)cn1` [Compound 1-242, 1-[2-cyano-4-(trifluoromethyl)phenyl]-N-[(3R,4S)-4-fluoro-1-methylpyrrolidin-3-yl]-4-[6-(2-methoxyphenyl)pyridin-3-yl]piperidine-4-carboxamide], the Ki was below 10 nM.

Consider `COc1ncccc1-c1ncc(C2(C(=O)N[C@H]3CCN(C)C3)CCN(c3ccc(C(F)(F)F)nc3C#N)CC2)cc1F` [Compound 1-133, 1-[2-cyano-6-(trifluoromethyl)pyridin-3-yl]-4-{3-fluoro-2′-methoxy-[2,3′-bipyridin]-5-yl}-N-[(3S)-1-methylpyrrolidin-3-yl]piperidine-4-carboxamide], for which the Ki was below 10 nM.

For the compound `CCOc1ncccc1-c1ccc(C2(C(=O)N[C@H]3CCN(C)C3)CCN(c3ccc(C(F)(F)F)cc3F)CC2)cn1` [Compound 1-186, 4-{2′-ethoxy-[2,3′-bipyridin]-5-yl}-1-[2-fluoro-4-(trifluoromethyl)phenyl]-N-[(3S)-1-methylpyrrolidin-3-yl]piperidine-4-carboxamide], the Ki was below 10 nM.

For `CCOc1ncccc1-c1ncc(C2(C(=O)N[C@H]3CCN(C)C3)CCN(c3ccc(C(F)(F)F)cc3Cl)CC2)cc1F` [Compound 1-203, 1-[2-chloro-4-(trifluoromethyl)phenyl]-4-{2′-ethoxy-3-fluoro-[2,3′-bipyridin]-5-yl}-N-[(3S)-1-methylpyrrolidin-3-yl]piperidine-4-carboxamide], the Ki was below 10 nM.

On to `CN1CC[C@H](NC(=O)C2(c3cnc(-c4cccn4C)c(F)c3)CCN(c3ccc(C(F)(F)F)cc3Cl)CC2)C1` [Compound 1-162, 1-[2-chloro-4-(trifluoromethyl)phenyl]-4-[5-fluoro-6-(1-methyl-1H-pyrrol-2-yl)pyridin-3-yl]-N-[(3S)-1-methylpyrrolidin-3-yl]piperidine-4-carboxamide], for which the Ki was below 10 nM.

For `CN1CC[C@H](NC(=O)C2(c3ccc(-c4cccn4C)nc3)CCN(c3ccc(C(F)(F)F)cc3C#N)CC2)C1` [Compound 1-100, 1-[2-cyano-4-(trifluoromethyl)phenyl]-4-[6-(1-methyl-1H-pyrrol-2-yl)pyridin-3-yl]-N-[(3S)-1-methylpyrrolidin-3-yl]piperidine-4-carboxamide], the Ki is below 10 nM.

In the case of `CN1CCC[C@@H]1CNC(=O)C1(c2ccc(-c3cccn3C)nc2)CCN(c2ccc(C(F)(F)F)cc2C#N)CC1` [Compound 1-232, 1-[2-cyano-4-(trifluoromethyl)phenyl]-4-[6-(1-methyl-1H-pyrrol-2-yl)pyridin-3-yl]-N-{[(2R)-1-methylpyrrolidin-2-yl]methyl}piperidine-4-carboxamide], the Ki is below 10 nM.

As for `CNCCNC(=O)C1(c2cnc(-c3cccnc3OC)c(F)c2)CCN(c2ccc(C(F)(F)F)cc2Cl)CC1` [Compound 1-303, 1-[2-chloro-4-(trifluoromethyl)phenyl]-4-{3-fluoro-2′-methoxy-[2,3′-bipyridin]-5-yl}-N-[2-(methylamino)ethyl]piperidine-4-carboxamide], the Ki is below 10 nM.

`CCOc1ncccc1-c1ccc(C2(C(=O)N[C@H]3CCN(C)C3)CCN(c3ccc(C(C)=O)cc3C#N)CC2)cn1` [Compound 1-36, 1-(4-acetyl-2-cyanophenyl)-4-{2′-ethoxy-[2,3′-bipyridin]-5-yl}-N-[(3S)-1-methylpyrrolidin-3-yl]piperidine-4-carboxamide]: the Ki was below 10 nM.

For the compound `CCOc1ncccc1-c1ccc(C2(C(=O)NCCN(C)C)CCN(c3ccc(C(F)(F)F)cc3C#N)CC2)nn1` [Compound 1-331, 1-[2-cyano-4-(trifluoromethyl)phenyl]-N-[2-(dimethylamino)ethyl]-4-[6-(2-ethoxypyridin-3-yl)pyridazin-3-yl]piperidine-4-carboxamide], the Ki was below 10 nM.

Consider `COc1ccccc1-c1ncc(C2(NC(=O)N[C@@H]3CCN(C)C3)CCN(c3ccc(C(F)(F)F)cc3C#N)CC2)cc1F` [Compound 2-52, 1-{1-[2-cyano-4-(trifluoromethyl)phenyl]-4-[5-fluoro-6-(2-methoxyphenyl)pyridin-3-yl]piperidin-4-yl}-3-[(3R)-1-methylpyrrolidin-3-yl]urea], for which the Ki was below 10 nM.

On to `CCOc1ccc(F)cc1-c1ccc(C2(C(=O)N[C@@H]3CCN(C)C3)CCN(c3ccc(C(F)(F)F)cc3C#N)CC2)cn1` [Compound 1-69, 1-[2-cyano-4-(trifluoromethyl)phenyl]-4-[6-(2-ethoxy-5-fluorophenyl)pyridin-3-yl]-N-[(3R)-1-methylpyrrolidin-3-yl]piperidine-4-carboxamide], for which the Ki is below 10 nM.

In the case of `COc1ccccc1-c1ccc(C2(NC(=O)N[C@@H]3CCN(C)C3)CCN(c3ccc(C(F)(F)F)cc3C#N)CC2)cn1` [Compound 2-56, 1-{1-[2-cyano-4-(trifluoromethyl)phenyl]-4-[6-(2-methoxyphenyl)pyridin-3-yl]piperidin-4-yl}-3-[(3R)-1-methylpyrrolidin-3-yl]urea], the Ki was below 10 nM.

Take `CCOc1ncccc1-c1ccc(C2(C(=O)N[C@@H](C)CN(C)C)CCN(c3ccc(C(F)(F)F)cc3F)CC2)cn1` [Compound 1-317, N-[(2S)-1-(dimethylamino)propan-2-yl]-4-{2′-ethoxy-[2,3′-bipyridin]-5-yl}-1-[2-fluoro-4-(trifluoromethyl)phenyl]piperidine-4-carboxamide]: the Ki is below 10 nM.

For the compound `COc1ccsc1-c1ccc(C2(C(=O)N[C@@H]3CCN(C)C3)CCN(c3ccc(C(F)(F)F)cc3C#N)CC2)cn1` [Compound 1-80, 1-[2-cyano-4-(trifluoromethyl)phenyl]-4-[6-(3-methoxythiophen-2-yl)pyridin-3-yl]-N-[(3R)-1-methylpyrrolidin-3-yl]piperidine-4-carboxamide], the Ki is below 10 nM.

On to `CCOc1ncccc1-c1ccc(C2(C(=O)NCCN(C)C)CCN(c3ccc(C(F)(F)F)cc3C#N)CC2)cc1` [Compound 1-8, 1-[2-cyano-4-(trifluoromethyl)phenyl]-N-[2-(dimethylamino)ethyl]-4-[4-(2-ethoxypyridin-3-yl)phenyl]piperidine-4-carboxamide], for which the Ki is below 10 nM.

Take `CNCCNC(=O)C1(c2cnc(-c3cccnc3OC)c(F)c2)CCN(c2ccc(C(F)(F)F)cc2F)CC1` [Compound 1-301, 4-{3-fluoro-2′-methoxy-[2,3′-bipyridin]-5-yl}-1-[2-fluoro-4-(trifluoromethyl)phenyl]-N-[2-(methylamino)ethyl]piperidine-4-carboxamide]: the Ki was below 10 nM.

In the case of `CCOc1ncccc1-c1ccc(C2(NC(=O)CCN(C)C)CCN(c3ccc(C(F)(F)F)cc3C#N)CC2)cn1` [Compound 2-10, N-{1-[2-cyano-4-(trifluoromethyl)phenyl]-4-{2′-ethoxy-[2,3′-bipyridin]-5-yl}piperidin-4-yl}-3-(dimethylamino)propanamide], the Ki was below 10 nM.

Consider `Cn1cccc1-c1ccc(C2(C(=O)NC[C@@H]3CCN3)CCN(c3ccc(C(F)(F)F)cc3C#N)CC2)cn1` [Compound 1-235, N-{[(2S)-azetidin-2-yl]methyl}-1-[2-cyano-4-(trifluoromethyl)phenyl]-4-[6-(1-methyl-1H-pyrrol-2-yl)pyridin-3-yl]piperidine-4-carboxamide], for which the Ki was in the range of 10 to 100 nM.

Turning to `CCOc1ncccc1-c1ccc(C2(C(=O)N[C@@H]3CCNC3)CCN(c3ccc(C(F)(F)F)cc3C#N)CC2)cn1` [Compound 1-10, 1-[2-cyano-4-(trifluoromethyl)phenyl]-4-{2′-ethoxy-[2,3′-bipyridin]-5-yl}-N-[(3R)-pyrrolidin-3-yl]piperidine-4-carboxamide], the Ki was below 10 nM.
